# How the values were obtained:
# [1] = Drug uptake in anesthetized cynomolgus monkey brain occipital lobe after 207.5 mins postinjection; format: ADME, organism-based, Macaca fascicularis; conditions: in vivo
# [2] = Drug uptake in anesthetized cynomolgus monkey brain occipital lobe after 182.5 mins postinjection; format: ADME, organism-based, Macaca fascicularis; conditions: in vivo
# [3] = Ratio of drug uptake in thalamus to cerebellum in awake rhesus monkey after 115 mins postinjection; format: ADME, organism-based, Macaca mulatta; conditions: in vivo
# [4] = biological target: Sodium-dependent dopamine transporter (Homo sapiens, UniProt Q01959); experiment: Displacement of [3H]RTI-55 from human DAT transfected in human HEK293 cells; format: cell-based
# [5] = Ratio of drug uptake in pons to cerebellum in awake rhesus monkey after 105 mins postinjection; format: ADME, organism-based, Macaca mulatta; conditions: in vivo, 1.75 h
# [6] = Ratio of drug uptake in pons to cerebellum in awake rhesus monkey after 0.8 mins postinjection; format: ADME, organism-based, Macaca mulatta; conditions: in vivo, 48 s
# [7] = Ratio of drug uptake in pons to cerebellum in anesthetized cynomolgus monkey after 205 mins postinjection; format: ADME, organism-based, Macaca fascicularis; conditions: in vivo
# [8] = Ratio of drug uptake in frontal lobe to cerebellum in awake rhesus monkey after 0.8 mins postinjection; format: ADME, organism-based, Macaca mulatta; conditions: in vivo, 48 s
# [9] = Drug uptake in awake rhesus monkey thalamus after 0.3 mins postinjection; format: ADME, organism-based, Macaca mulatta; conditions: in vivo, 0.005 h
# [10] = Ratio of drug uptake in pons to cerebellum in awake rhesus monkey after 2.8 mins postinjection; format: ADME, organism-based, Macaca mulatta; conditions: in vivo, 168 s
# [11] = Ratio of drug uptake in occipital lobe to cerebellum in awake rhesus monkey after 0.8 mins postinjection; format: ADME, organism-based, Macaca mulatta; conditions: in vivo, 48 s
# [12] = Drug uptake in awake rhesus monkey midbrain after 1.3 mins postinjection; format: ADME, organism-based, Macaca mulatta; conditions: in vivo, 78 s
# [13] = Drug uptake in awake rhesus monkey caudate after 2.8 mins postinjection; format: ADME, organism-based, Macaca mulatta, Caudate nucleus; conditions: in vivo, 168 s
# [14] = Ratio of drug uptake in frontal lobe to cerebellum in awake rhesus monkey after 65 mins postinjection; format: ADME, organism-based, Macaca mulatta; conditions: in vivo
# [15] = Drug uptake in awake rhesus monkey cerebellum after 1.3 mins postinjection; format: ADME, organism-based, Macaca mulatta; conditions: in vivo, 78 s
# [16] = Drug uptake in awake rhesus monkey caudate after 0.8 mins postinjection; format: ADME, organism-based, Macaca mulatta, Caudate nucleus; conditions: in vivo, 48 s
# [17] = Drug uptake in awake rhesus monkey occipital lobe after 4.5 mins postinjection; format: ADME, organism-based, Macaca mulatta; conditions: in vivo, 0.075 h
# [18] = Drug uptake in awake rhesus monkey frontal lobe after 1.3 mins postinjection; format: ADME, organism-based, Macaca mulatta; conditions: in vivo, 78 s
# [19] = Drug uptake in awake rhesus monkey medulla after 2.3 mins postinjection; format: ADME, organism-based, Macaca mulatta, Medulla of organ; conditions: in vivo, 138 s
# [20] = Drug uptake in awake rhesus monkey occipital lobe after 2.3 mins postinjection; format: ADME, organism-based, Macaca mulatta; conditions: in vivo, 138 s
# [21] = Ratio of drug uptake in midbrain to cerebellum in awake rhesus monkey after 45 mins postinjection; format: ADME, organism-based, Macaca mulatta; conditions: in vivo, 0.75 h
# [22] = Ratio of drug uptake in midbrain to cerebellum in awake rhesus monkey after 115 mins postinjection; format: ADME, organism-based, Macaca mulatta; conditions: in vivo
# [23] = Drug uptake in awake rhesus monkey thalamus after 1.8 mins postinjection; format: ADME, organism-based, Macaca mulatta; conditions: in vivo, 0.03 h
# [24] = Drug uptake in awake rhesus monkey occipital lobe after 115 mins postinjection; format: ADME, organism-based, Macaca mulatta; conditions: in vivo
# [25] = Drug uptake in awake rhesus monkey occipital lobe after 2.8 mins postinjection; format: ADME, organism-based, Macaca mulatta; conditions: in vivo, 168 s
# [26] = Ratio of drug uptake in occipital lobe to cerebellum in awake rhesus monkey after 65 mins postinjection; format: ADME, organism-based, Macaca mulatta; conditions: in vivo
# [27] = Ratio of drug uptake in occipital lobe to cerebellum in awake rhesus monkey after 13.5 mins postinjection; format: ADME, organism-based, Macaca mulatta; conditions: in vivo, 0.225 h
# [28] = Drug uptake in awake rhesus monkey putamen after 2.3 mins postinjection; format: ADME, organism-based, Macaca mulatta; conditions: in vivo, 138 s
# [29] = Ratio of drug uptake in occipital lobe to cerebellum in awake rhesus monkey after 10.5 mins postinjection; format: ADME, organism-based, Macaca mulatta; conditions: in vivo, 0.175 h
# [30] = Ratio of drug uptake in caudate to cerebellum in awake rhesus monkey after 0.8 mins postinjection; format: ADME, organism-based, Macaca mulatta; conditions: in vivo, 48 s
# [31] = Ratio of drug uptake in putamen to cerebellum in awake rhesus monkey after 25 mins postinjection; format: ADME, organism-based, Macaca mulatta; conditions: in vivo
# [32] = Drug uptake in awake rhesus monkey occipital lobe after 85 mins postinjection; format: ADME, organism-based, Macaca mulatta; conditions: in vivo
# [33] = Ratio of drug uptake in midbrain to cerebellum in awake rhesus monkey after 4.5 mins postinjection; format: ADME, organism-based, Macaca mulatta; conditions: in vivo, 0.075 h
# [34] = Ratio of drug uptake in pons to cerebellum in awake rhesus monkey after 55 mins postinjection; format: ADME, organism-based, Macaca mulatta; conditions: in vivo
# [35] = biological target: Sodium-dependent serotonin transporter (Homo sapiens, UniProt P31645); experiment: Displacement of [3H](R,S)citalopram.HBr from human SERT transfected in human HEK293 cells; format: cell-based
# [36] = Drug uptake in awake rhesus monkey brain caudate after 1.25 mins postinjection; format: ADME, organism-based, Macaca mulatta, Caudate nucleus; conditions: in vivo, 75 s
# [37] = Ratio of drug uptake in medulla to cerebellum in awake rhesus monkey after 25 mins postinjection; format: ADME, organism-based, Macaca mulatta; conditions: in vivo
# [38] = Ratio of drug uptake in midbrain to cerebellum in awake rhesus monkey after 35 mins postinjection; format: ADME, organism-based, Macaca mulatta; conditions: in vivo
# [39] = Ratio of drug uptake in frontal lobe to cerebellum in awake rhesus monkey after 45 mins postinjection; format: ADME, organism-based, Macaca mulatta; conditions: in vivo, 0.75 h
# [40] = Ratio of drug uptake in thalamus to cerebellum in awake rhesus monkey after 35 mins postinjection; format: ADME, organism-based, Macaca mulatta; conditions: in vivo
# [41] = Drug uptake in awake rhesus monkey brain caudate after 2.25 mins postinjection; format: ADME, organism-based, Macaca mulatta, Caudate nucleus; conditions: in vivo, 135 s
# [42] = Ratio of drug uptake in medulla to cerebellum in awake rhesus monkey after 45 mins postinjection; format: ADME, organism-based, Macaca mulatta; conditions: in vivo, 0.75 h
# [43] = Drug uptake in awake rhesus monkey brain frontal lobe after 115 mins postinjection; format: ADME, organism-based, Macaca mulatta; conditions: in vivo
# [44] = Ratio of drug uptake in caudate to cerebellum in awake rhesus monkey after 105 mins postinjection; format: ADME, organism-based, Macaca mulatta; conditions: in vivo, 1.75 h
# [45] = Ratio of drug uptake in caudate to cerebellum in awake rhesus monkey after 13.5 mins postinjection; format: ADME, organism-based, Macaca mulatta; conditions: in vivo, 0.225 h
# [46] = Drug uptake in awake rhesus monkey brain frontal lobe after 2.75 mins postinjection; format: ADME, organism-based, Macaca mulatta; conditions: in vivo, 165 s
# [47] = Drug uptake in awake rhesus monkey brain pons after 2.75 mins postinjection; format: ADME, organism-based, Macaca mulatta; conditions: in vivo, 165 s
# [48] = Ratio of drug uptake in thalamus to cerebellum in awake rhesus monkey after 10.5 mins postinjection; format: ADME, organism-based, Macaca mulatta; conditions: in vivo, 0.175 h
# [49] = Ratio of drug uptake in medulla to cerebellum in awake rhesus monkey after 85 mins postinjection; format: ADME, organism-based, Macaca mulatta; conditions: in vivo
# [50] = Drug uptake in awake rhesus monkey brain cerebellum after 0.75 mins postinjection; format: ADME, organism-based, Macaca mulatta; conditions: in vivo, 45 s
# [51] = Ratio of drug uptake in frontal lobe to cerebellum in awake rhesus monkey after 75 mins postinjection; format: ADME, organism-based, Macaca mulatta; conditions: in vivo, 1.25 h
# [52] = Drug uptake in awake rhesus monkey brain midbrain after 0.75 mins postinjection; format: ADME, organism-based, Macaca mulatta; conditions: in vivo, 45 s
# [53] = Drug uptake in awake rhesus monkey brain frontal lobe after 1.75 mins postinjection; format: ADME, organism-based, Macaca mulatta; conditions: in vivo, 105 s
# [54] = Drug uptake in awake rhesus monkey brain pons after 1.25 mins postinjection; format: ADME, organism-based, Macaca mulatta; conditions: in vivo, 75 s
# [55] = Ratio of drug uptake in putamen to cerebellum in awake rhesus monkey after 4.5 mins postinjection; format: ADME, organism-based, Macaca mulatta; conditions: in vivo, 0.075 h
# [56] = Ratio of drug uptake in frontal lobe to cerebellum in awake rhesus monkey after 55 mins postinjection; format: ADME, organism-based, Macaca mulatta; conditions: in vivo
# [57] = Drug uptake in awake rhesus monkey brain putamen after 115 mins postinjection; format: ADME, organism-based, Macaca mulatta; conditions: in vivo
# [58] = Ratio of drug uptake in caudate to cerebellum in awake rhesus monkey after 17.5 mins postinjection; format: ADME, organism-based, Macaca mulatta; conditions: in vivo
# [59] = Protein binding in anesthetized cynomolgus monkey plasma after 120 mins postinjection; format: ADME, organism-based, Macaca fascicularis; conditions: read-out: PPB (converted)
# [60] = Protein binding in anesthetized cynomolgus monkey plasma after 5 mins postinjection; format: ADME, organism-based, Macaca fascicularis; conditions: read-out: PPB (converted)
# [61] = Ratio of drug uptake in midbrain to cerebellum in awake rhesus monkey after 105 mins postinjection; format: ADME, organism-based, Macaca mulatta; conditions: in vivo, 1.75 h
# [62] = Drug uptake in awake rhesus monkey brain medulla after 1.25 mins postinjection; format: ADME, organism-based, Macaca mulatta; conditions: in vivo, 75 s
# [63] = Protein binding in anesthetized cynomolgus monkey plasma after 180 mins postinjection; format: ADME, organism-based, Macaca fascicularis; conditions: read-out: PPB (converted)
# Sodium-dependent dopamine transporter, sequence (Q01959 whole entry): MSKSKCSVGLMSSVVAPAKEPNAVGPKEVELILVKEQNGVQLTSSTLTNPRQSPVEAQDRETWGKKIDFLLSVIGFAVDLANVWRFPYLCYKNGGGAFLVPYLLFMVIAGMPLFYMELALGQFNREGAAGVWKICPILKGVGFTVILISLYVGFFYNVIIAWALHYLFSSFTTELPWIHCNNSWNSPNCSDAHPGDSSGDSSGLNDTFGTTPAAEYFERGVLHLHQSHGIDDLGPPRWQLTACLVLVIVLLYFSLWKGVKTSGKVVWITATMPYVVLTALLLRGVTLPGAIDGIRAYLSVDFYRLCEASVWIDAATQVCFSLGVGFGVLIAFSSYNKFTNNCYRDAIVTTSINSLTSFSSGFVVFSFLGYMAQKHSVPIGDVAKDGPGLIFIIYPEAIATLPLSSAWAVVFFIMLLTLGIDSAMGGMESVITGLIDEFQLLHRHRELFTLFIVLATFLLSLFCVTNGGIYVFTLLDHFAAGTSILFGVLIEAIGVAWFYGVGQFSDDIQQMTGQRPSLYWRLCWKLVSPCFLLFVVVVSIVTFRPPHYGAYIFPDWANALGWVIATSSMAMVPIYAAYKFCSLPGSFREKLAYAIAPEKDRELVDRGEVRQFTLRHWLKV
# Sodium-dependent serotonin transporter, sequence (P31645 whole entry): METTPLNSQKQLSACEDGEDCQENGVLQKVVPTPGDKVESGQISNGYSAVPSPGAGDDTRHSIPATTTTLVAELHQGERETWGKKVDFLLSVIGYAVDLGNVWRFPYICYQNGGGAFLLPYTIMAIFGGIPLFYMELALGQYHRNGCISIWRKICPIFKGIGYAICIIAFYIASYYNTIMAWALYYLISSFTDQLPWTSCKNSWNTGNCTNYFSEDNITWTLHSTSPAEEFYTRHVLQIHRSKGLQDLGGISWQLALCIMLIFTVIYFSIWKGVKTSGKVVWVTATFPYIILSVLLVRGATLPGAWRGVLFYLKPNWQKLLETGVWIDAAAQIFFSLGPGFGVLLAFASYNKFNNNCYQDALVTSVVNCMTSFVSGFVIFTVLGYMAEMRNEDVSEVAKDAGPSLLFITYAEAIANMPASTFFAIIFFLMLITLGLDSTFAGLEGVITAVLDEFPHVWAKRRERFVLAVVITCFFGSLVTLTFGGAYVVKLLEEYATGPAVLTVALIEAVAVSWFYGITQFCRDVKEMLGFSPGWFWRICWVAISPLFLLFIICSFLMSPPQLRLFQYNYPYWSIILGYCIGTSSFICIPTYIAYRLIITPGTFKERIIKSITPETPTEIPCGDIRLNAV
smiles,measurement,setting,value
O=C(OCCC[18F])C1C2CCC(CC1c1cccc(/C=C\Br)c1)N2 (stereo not drawn),Drug uptake,[1],2.68
same,Drug uptake,[2],2.93
O=C(OCC[18F])C1C2CCC(CC1c1ccc(/C=C\I)cc1)N2 (stereo not drawn),Ratio,[3],2.6
same,Ki,[4],13 nM
same,Ratio,[5],1.8
same,Ratio,[6],4.8
same,Ratio,[7],2.7
same,Ratio,[8],0
same,Drug uptake,[9],0
same,Ratio,[10],1
same,Ratio,[11],1.9
same,Drug uptake,[12],0.05
same,Drug uptake,[13],0.53
same,Ratio,[14],1.3
same,Drug uptake,[15],0.06
same,Drug uptake,[16],0
same,Drug uptake,[17],0.96
same,Drug uptake,[18],0.05
same,Drug uptake,[19],0.68
same,Drug uptake,[20],0.36
same,Ratio,[21],1.3
same,Ratio,[22],2.5
same,Drug uptake,[23],0.32
same,Drug uptake,[24],2.57
same,Drug uptake,[25],0.53
same,Ratio,[26],1.6
same,Ratio,[27],1
same,Drug uptake,[28],0.46
same,Ratio,[29],0.9
same,Ratio,[30],0
same,Ratio,[31],1.3
same,Drug uptake,[32],2.74
same,Ratio,[33],1
same,Ratio,[34],1.3
same,Ki,[35],0.08 nM
O=C(OCC[18F])C1C2CCC(CC1c1cccc(/C=C\I)c1)N2 (stereo not drawn),Drug uptake,[36],0.01
same,Ratio,[37],1
same,Ratio,[38],1.3
same,Ratio,[39],1
same,Ratio,[40],1.4
same,Drug uptake,[41],0.03
same,Ratio,[42],1
same,Drug uptake,[43],0.1
same,Ratio,[44],1.4
same,Ratio,[45],1.1
same,Drug uptake,[46],0.03
same,Drug uptake,[47],0.02
same,Ratio,[48],1.4
same,Ratio,[49],1.1
same,Drug uptake,[50],0
same,Ratio,[51],1.1
same,Drug uptake,[52],0
same,Drug uptake,[53],0.02
same,Drug uptake,[54],0.01
same,Ratio,[55],1.3
same,Ratio,[56],1
same,Drug uptake,[57],0.13
same,Ratio,[58],1.2
same,fraction unbound at 2 h,[59],0.934
same,fraction unbound at 5 min,[60],0.925
same,Ratio,[61],1.7
same,Drug uptake,[62],0.01
same,fraction unbound at 3 h,[63],0.915
